{"source": "patent US11926574B2", "about": "“Dimethoxyphenylalkylamine activators of serotonin receptors” (Entheogenix Biosciences, Inc., priority 2021, dated 2024)", "note": "Counter-ions that a name gives are not always drawn."}
{"target": "5HT2A (Homo sapiens, UniProt P28223)", "sequence (P28223 whole entry)": "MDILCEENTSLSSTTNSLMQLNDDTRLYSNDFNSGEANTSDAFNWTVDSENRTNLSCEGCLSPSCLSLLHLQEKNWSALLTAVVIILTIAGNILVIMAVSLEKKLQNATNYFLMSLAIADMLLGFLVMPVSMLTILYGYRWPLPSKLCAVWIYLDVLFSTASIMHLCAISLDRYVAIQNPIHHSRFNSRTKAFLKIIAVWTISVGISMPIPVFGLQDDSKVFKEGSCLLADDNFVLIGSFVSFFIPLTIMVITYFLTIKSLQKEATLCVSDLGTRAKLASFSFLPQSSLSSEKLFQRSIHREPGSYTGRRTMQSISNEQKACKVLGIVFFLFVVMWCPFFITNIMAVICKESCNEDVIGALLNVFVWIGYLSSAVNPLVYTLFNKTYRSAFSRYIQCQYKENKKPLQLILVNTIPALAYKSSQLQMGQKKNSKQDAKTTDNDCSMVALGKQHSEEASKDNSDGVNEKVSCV", "assay": "5HT2A Activity (% Max Activation @ 0.3 uM)", "type": "cell-based", "units": {"Emax at 0.3 µM": "%"}}
{"compound": "COc1ccc(OC)c(CCNCc2cc(C)cc(F)c2)c1", "note": "[Compound 2-2, 2-(2,5-dimethoxyphenyl)-N-(3-fluoro-5-methylbenzyl)ethan-1-amine]", "Emax at 0.3 µM": 76}
{"compound": "COc1ccc(OC)c([C@H](O)CNCc2cc(C)cc(Cl)c2)c1", "note": "[Compound 2-33, (S)-2-((3-chloro-5-methylbenzyl)amino)-1-(2,5-dimethoxyphenyl)ethan-1-ol]", "Emax at 0.3 µM": 39}
{"compound": "COc1ccc(OC)c(CCNCc2cccc(Cl)c2Cl)c1", "note": "[Compound 2-8, N-(2,3-dichlorobenzyl)-2-(2,5-dimethoxyphenyl)ethan-1-amine]", "Emax at 0.3 µM": 33}
{"compound": "COc1cc(CCNCc2cc(C)cc(Cl)c2)c(OC)cc1Cl", "note": "[Compound 2-21, 2-(4-chloro-2,5-dimethoxyphenyl)-N-(3-chloro-5-methylbenzyl)ethan-1-amine]", "Emax at 0.3 µM": 92}
{"compound": "COc1ccc(OC)c2c1CCC(NCc1cc(C)cc(Br)c1)C2", "note": "(stereo not drawn) [Compound 1-4, N-(3-bromo-5-methylbenzyl)-5,8-dimethoxy-1,2,3,4-tetrahydronaphthalen-2-amine]", "Emax at 0.3 µM": 42}
{"compound": "COc1ccc(OC)c2c1CCC(NCc1cccc(Cl)c1C)C2", "note": "(stereo not drawn) [Compound 1-9, N-(3-chloro-2-methylbenzyl)-5,8-dimethoxy-1,2,3,4-tetrahydronaphthalen-2-amine]", "Emax at 0.3 µM": 7}
{"compound": "COc1ccc(OC)c2c1CCC(NCc1ccc(C)cc1Cl)C2", "note": "(stereo not drawn) [Compound 1-12, N-(2-chloro-4-methylbenzyl)-5,8-dimethoxy-1,2,3,4-tetrahydronaphthalen-2-amine]", "Emax at 0.3 µM": 4}
{"compound": "COc1cc(CCNCc2cc(C)cc(Cl)c2)c(OC)cc1Br", "note": "[Compound 2-22, 2-(4-bromo-2,5-dimethoxyphenyl)-N-(3-chloro-5-methylbenzyl)ethan-1-amine]", "Emax at 0.3 µM": 85}
{"compound": "COc1ccc(OC)c2c1CCC(NCc1cc(Cl)cc(Cl)c1)C2", "note": "(stereo not drawn) [Compound 1-15, N-(3,5-dichlorobenzyl)-5,8-dimethoxy-1,2,3,4-tetrahydronaphthalen-2-amine]", "Emax at 0.3 µM": 11}
{"compound": "COc1ccc(OC)c2c1CCC2NCc1cc(C)cc(Cl)c1", "note": "(stereo not drawn) [Compound 1-21, N-(3-chloro-5-methylbenzyl)-4,7-dimethoxy-2,3-dihydro-1H-1-inden-1-amine]", "Emax at 0.3 µM": 9}
{"compound": "COc1ccc(OC)c2c1CCC(NCc1ccccc1)C2", "note": "(stereo not drawn) [Compound 1-18, N-benzyl-5,8-dimethoxy-1,2,3,4-tetrahydronaphthalen-2-amine]", "Emax at 0.3 µM": 6}
{"compound": "COc1cc(CCNCc2cc(C)cc(Cl)c2)c(OC)cc1C#N", "note": "[Compound 2-23, 4-(2-((3-chloro-5-methylbenzyl)amino)ethyl)-2,5-dimethoxybenzonitrile]", "Emax at 0.3 µM": 96}
{"compound": "COc1ccc(OC)c2c1CC(NCc1cc(C)cc(Cl)c1)C2", "note": "[Compound 1-20, N-(3-chloro-5-methylbenzyl)-4,7-dimethoxy-2,3-dihydro-1H-inden-2-amine hydrochloride]", "Emax at 0.3 µM": 59}
{"compound": "COc1cc(N2CCOCC2)c(OC)cc1CCNCc1cc(C)cc(Cl)c1", "note": "[Compound 2-31, N-(3-chloro-5-methylbenzyl)-2-(2,5-dimethoxy-4-morpholinophenyl)ethan-1-amine]", "Emax at 0.3 µM": 41}
{"compound": "COc1ccc(OC)c(CCNCc2cc(C)cc([N+](=O)[O-])c2)c1", "note": "[Compound 2-9, 2-(2,5-dimethoxyphenyl)-N-(3-methyl-5-nitrobenzyl)ethan-1-amine]", "Emax at 0.3 µM": 5}
{"compound": "CCc1cc(OC)c(CCNCc2cc(C)cc(Cl)c2)cc1OC", "note": "[Compound 2-19, N-(3-chloro-5-methylbenzyl)-2-(4-ethyl-2,5-dimethoxyphenyl)ethan-1-amine]", "Emax at 0.3 µM": 84}
{"compound": "COc1ccc(OC)c(CC(CO)NCc2cc(C)cc(Cl)c2)c1", "note": "(stereo not drawn) [Compound 2-29, 2-((3-chloro-5-methylbenzyl)amino)-3-(2,5-dimethoxyphenyl)propan-1-ol]", "Emax at 0.3 µM": 27}
{"compound": "COc1cc(I)c(OC)c2c1CC(NCc1cc(C)cc(Cl)c1)CC2", "note": "(stereo not drawn) [Compound 1-2A, N-(3-chloro-5-methylbenzyl)-6-iodo-5,8-dimethoxy-1,2,3,4-tetrahydronaphthalen-2-amine]", "Emax at 0.3 µM": 73}
